# How the values were obtained:
# [1] = target: Serine/threonine-protein kinase 26 (Homo sapiens) (UniProt Q9P289); test: Inhibition of recombinant human MST4 (4 to 304 residues) at 1 uM using RLGRDKYKTLRQIRQ as substrate after 40 mins in presence of [gamma-33P]ATP by scintillation counting method
# [2] = target: Ephrin type-B receptor 4 (Homo sapiens) (UniProt P54760); test: Inhibition of recombinant human EPHB4 (561 to end residues) at 1 uM using poly(Glu,Tyr) 4:1 as substrate after 40 mins in presence of [gamma-33P]ATP by scintillation counting method
# [3] = target: Serine/threonine-protein kinase DCLK3 (Homo sapiens) (UniProt Q9C098); test: Inhibition of recombinant human DCAMKL3 (345 to end residues) at 1 uM using KKLNRTLSFAEPG as substrate after 40 mins in presence of [gamma-33P]ATP by scintillation counting method
# Serine/threonine-protein kinase DCLK3 (Homo sapiens), sequence (Q9C098 whole entry): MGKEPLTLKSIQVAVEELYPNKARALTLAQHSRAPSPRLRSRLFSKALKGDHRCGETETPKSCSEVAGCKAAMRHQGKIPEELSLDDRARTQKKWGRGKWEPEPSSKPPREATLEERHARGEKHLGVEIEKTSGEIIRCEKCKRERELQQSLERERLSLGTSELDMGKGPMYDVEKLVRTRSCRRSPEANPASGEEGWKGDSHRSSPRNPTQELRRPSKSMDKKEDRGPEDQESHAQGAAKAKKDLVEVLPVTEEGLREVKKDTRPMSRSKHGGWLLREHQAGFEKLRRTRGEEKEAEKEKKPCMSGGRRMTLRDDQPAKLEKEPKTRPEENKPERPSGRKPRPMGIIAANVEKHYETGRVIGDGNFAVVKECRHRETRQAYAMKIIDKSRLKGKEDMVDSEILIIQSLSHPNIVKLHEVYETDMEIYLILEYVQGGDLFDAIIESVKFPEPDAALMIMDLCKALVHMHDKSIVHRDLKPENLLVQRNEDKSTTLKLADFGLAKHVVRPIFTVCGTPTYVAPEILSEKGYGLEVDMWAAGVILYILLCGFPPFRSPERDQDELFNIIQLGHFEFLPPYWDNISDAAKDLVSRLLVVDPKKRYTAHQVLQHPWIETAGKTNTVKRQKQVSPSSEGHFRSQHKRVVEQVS
# [4] = target: cAMP-dependent protein kinase catalytic subunit alpha (Homo sapiens) (UniProt P17612); test: Inhibition of recombinant full-length human PRKACA at 1 uM using LRRASLG (Kemptide) as substrate after 40 mins in presence of [gamma-33P]ATP by scintillation counting method
# [5] = target: Calcium/calmodulin-dependent protein kinase type 1B (Homo sapiens) (UniProt Q6P2M8); test: Inhibition of recombinant full-length human CAMK1beta at 1 uM using KKLRRTLSFAEPG as substrate after 40 mins in presence of [gamma-33P]ATP by scintillation counting method
# Calcium/calmodulin-dependent protein kinase type 1B (Homo sapiens), sequence (Q6P2M8 whole entry): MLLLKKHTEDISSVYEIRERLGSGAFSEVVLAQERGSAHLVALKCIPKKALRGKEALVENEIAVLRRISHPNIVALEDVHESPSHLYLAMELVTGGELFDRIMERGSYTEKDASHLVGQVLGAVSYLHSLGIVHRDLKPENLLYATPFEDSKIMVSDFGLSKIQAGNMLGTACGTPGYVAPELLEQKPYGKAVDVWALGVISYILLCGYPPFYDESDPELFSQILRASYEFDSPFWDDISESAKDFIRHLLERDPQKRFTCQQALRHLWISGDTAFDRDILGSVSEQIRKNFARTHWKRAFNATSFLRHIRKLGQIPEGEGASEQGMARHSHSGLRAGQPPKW
# [6] = target: Serine/threonine-protein kinase PAK 5 (Homo sapiens) (UniProt Q9P286); test: Inhibition of recombinant human PAK5 (425 to end residues) at 1 uM using RRRLSFAEPG as substrate after 40 mins in presence of [gamma-33P]ATP by scintillation counting method
# Serine/threonine-protein kinase PAK 5 (Homo sapiens), sequence (Q9P286 whole entry, looked up): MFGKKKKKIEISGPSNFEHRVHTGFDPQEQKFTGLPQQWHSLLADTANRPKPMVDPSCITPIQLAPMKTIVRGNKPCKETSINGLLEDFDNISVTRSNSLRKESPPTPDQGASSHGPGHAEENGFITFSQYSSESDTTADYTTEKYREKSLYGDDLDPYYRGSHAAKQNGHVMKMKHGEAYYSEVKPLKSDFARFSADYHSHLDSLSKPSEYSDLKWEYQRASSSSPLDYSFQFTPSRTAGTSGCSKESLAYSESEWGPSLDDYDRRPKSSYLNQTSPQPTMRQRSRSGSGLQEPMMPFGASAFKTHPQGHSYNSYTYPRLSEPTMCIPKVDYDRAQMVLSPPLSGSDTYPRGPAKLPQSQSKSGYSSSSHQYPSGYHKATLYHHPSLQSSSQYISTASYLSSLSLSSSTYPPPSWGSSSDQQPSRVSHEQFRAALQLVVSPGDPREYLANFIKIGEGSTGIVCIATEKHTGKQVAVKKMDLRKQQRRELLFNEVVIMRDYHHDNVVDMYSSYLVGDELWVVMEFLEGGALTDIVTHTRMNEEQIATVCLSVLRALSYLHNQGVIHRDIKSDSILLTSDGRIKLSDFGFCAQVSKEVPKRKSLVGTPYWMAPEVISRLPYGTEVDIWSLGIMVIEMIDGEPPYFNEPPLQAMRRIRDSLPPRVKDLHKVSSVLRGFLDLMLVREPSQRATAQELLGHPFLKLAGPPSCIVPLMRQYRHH
# [7] = target: CDK18/Cyclin Y (Homo sapiens) (UniProt Q07002+Q8ND76); test: Inhibition of recombinant full-length human CDK18/Cyclin Y at 1 uM using YRRAAVPPSPSLSRHSSPHQS(p)EDEEE as substrate after 40 mins in presence of [gamma-33P]ATP by scintillation counting method; assay type: protein-complex assay
# [8] = target: Aurora kinase A (Homo sapiens) (UniProt O14965); test: Inhibition of recombinant full-length human Aurora-A at 1 uM using LRRASLG (kemptide) as substrate after 40 mins in presence of [gamma-33P]ATP by scintillation counting method
# [9] = target: Protein kinase C beta type (Homo sapiens) (UniProt P05771); test: Inhibition of recombinant human PKCbeta1 (2 to end residues) at 1 uM using histone H1 as substrate after 40 mins in presence of [gamma-33P]ATP by scintillation counting method
# [10] = target: Mitogen-activated protein kinase 10 (Homo sapiens) (UniProt P53779); test: Inhibition of recombinant full-length human JNK3 at 1 uM using peptide as substrate after 40 mins in presence of [gamma-33P]ATP by scintillation counting method
# Mitogen-activated protein kinase 10 (Homo sapiens), sequence (P53779 whole entry): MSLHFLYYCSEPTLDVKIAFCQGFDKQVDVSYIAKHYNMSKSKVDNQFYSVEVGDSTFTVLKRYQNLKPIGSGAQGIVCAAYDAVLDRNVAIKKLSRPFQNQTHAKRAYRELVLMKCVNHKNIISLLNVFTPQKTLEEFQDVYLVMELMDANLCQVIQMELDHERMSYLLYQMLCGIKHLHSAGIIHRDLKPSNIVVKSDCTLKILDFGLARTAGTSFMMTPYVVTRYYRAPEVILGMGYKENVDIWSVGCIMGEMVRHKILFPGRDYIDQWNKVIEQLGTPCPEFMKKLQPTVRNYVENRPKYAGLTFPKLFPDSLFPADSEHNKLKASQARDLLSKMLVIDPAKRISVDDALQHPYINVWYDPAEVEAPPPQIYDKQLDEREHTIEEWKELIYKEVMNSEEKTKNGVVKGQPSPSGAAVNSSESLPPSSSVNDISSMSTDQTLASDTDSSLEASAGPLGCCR
# [11] = target: FKBP12A/mTOR (Homo sapiens) (UniProt P62942+P42345); test: Inhibition of recombinant full-length human mTOR/FKBP12 at 1 uM after 40 mins in presence of [gamma-33P]ATP by scintillation counting method; assay type: protein-complex assay
# [12] = system: Serine/threonine-protein kinase B-raf (Homo sapiens), P15056 [V600E]; test: Inhibition of recombinant human B-raf V599E mutant (416 to end residues) at 1 uM using myelin basic protein as substrate after 40 mins in presence of [gamma-33P]ATP by scintillation counting method
# Serine/threonine-protein kinase B-raf (Homo sapiens), P15056 [V600E], sequence (P15056 whole entry V600E): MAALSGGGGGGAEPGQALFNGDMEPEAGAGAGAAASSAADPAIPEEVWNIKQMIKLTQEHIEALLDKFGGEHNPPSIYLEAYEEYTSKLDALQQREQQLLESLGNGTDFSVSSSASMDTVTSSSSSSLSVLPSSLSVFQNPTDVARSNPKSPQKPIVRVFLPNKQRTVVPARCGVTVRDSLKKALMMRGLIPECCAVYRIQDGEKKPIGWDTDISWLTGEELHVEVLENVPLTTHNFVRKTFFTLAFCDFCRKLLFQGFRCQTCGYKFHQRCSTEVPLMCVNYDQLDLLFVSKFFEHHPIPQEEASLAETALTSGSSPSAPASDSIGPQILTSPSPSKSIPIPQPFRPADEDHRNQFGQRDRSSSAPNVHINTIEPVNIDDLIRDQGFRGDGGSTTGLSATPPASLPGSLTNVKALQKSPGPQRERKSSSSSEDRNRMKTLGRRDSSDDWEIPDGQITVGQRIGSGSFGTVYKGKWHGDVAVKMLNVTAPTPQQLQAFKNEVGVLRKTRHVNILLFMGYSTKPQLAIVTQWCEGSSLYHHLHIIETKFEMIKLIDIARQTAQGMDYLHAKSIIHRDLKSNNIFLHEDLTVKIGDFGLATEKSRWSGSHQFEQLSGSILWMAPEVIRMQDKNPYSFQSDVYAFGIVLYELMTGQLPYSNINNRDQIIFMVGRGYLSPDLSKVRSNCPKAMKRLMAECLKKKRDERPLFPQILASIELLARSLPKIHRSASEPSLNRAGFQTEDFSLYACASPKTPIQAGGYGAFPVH
# [13] = target: 3-phosphoinositide-dependent protein kinase 1 (Homo sapiens) (UniProt O15530); test: Inhibition of recombinant human PDK1 (52 to end residues) at 1 uM using KTFCGTPEYLAPEVRREPRILSEEEQEMFRDFDYIADWC (PDKtide) as substrate after 40 mins in presence of [gamma-33P]ATP by scintillation counting method
# [14] = target: Macrophage colony-stimulating factor 1 receptor (Homo sapiens) (UniProt P07333); test: Inhibition of recombinant human Fms (538 to end residues) at 1 uM using KKKSPGEYVNIEFG as substrate after 40 mins in presence of [gamma-33P]ATP by scintillation counting method
# Macrophage colony-stimulating factor 1 receptor (Homo sapiens), sequence (P07333 whole entry, canonical isoform): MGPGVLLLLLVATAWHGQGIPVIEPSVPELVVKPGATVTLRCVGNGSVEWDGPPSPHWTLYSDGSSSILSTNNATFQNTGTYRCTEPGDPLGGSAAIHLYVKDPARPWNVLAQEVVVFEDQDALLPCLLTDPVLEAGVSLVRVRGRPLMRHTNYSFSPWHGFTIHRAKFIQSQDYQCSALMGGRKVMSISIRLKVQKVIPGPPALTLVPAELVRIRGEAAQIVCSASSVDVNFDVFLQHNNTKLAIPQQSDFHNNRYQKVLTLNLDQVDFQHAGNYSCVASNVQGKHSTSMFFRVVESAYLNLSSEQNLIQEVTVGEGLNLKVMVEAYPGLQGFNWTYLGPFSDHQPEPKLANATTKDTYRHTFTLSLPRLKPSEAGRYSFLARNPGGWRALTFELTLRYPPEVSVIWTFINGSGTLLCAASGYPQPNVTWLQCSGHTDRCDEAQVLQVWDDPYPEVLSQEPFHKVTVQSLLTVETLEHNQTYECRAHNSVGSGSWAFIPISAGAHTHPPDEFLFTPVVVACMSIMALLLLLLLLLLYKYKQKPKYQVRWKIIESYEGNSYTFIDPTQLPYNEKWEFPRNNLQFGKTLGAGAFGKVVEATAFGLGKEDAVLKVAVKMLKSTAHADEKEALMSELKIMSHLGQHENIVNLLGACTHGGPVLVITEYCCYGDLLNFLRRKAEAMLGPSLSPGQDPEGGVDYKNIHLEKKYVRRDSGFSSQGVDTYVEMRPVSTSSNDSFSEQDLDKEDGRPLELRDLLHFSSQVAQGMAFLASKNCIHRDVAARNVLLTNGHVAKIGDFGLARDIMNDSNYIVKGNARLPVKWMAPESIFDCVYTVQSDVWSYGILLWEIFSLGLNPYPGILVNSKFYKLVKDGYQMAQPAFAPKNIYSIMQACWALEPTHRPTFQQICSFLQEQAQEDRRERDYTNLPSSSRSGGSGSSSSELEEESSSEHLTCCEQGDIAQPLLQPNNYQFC
# [15] = target: Casein kinase I isoform gamma-2 (Homo sapiens) (UniProt P78368); test: Inhibition of recombinant human CK1gamma2 (18 to end residues) at 1 uM using KRRRALS(p)VASLPGL s substrate after 40 mins in presence of [gamma-33P]ATP by scintillation counting method
# [16] = target: Proto-oncogene tyrosine-protein kinase Src (Homo sapiens) (UniProt P12931); test: Inhibition of recombinant human Src (1 to 530 residues) at 1 uM using GGEEEEYFELVKKKK as substrate after 40 mins in presence of [gamma-33P]ATP by scintillation counting method
# [17] = system: Proto-oncogene tyrosine-protein kinase Src (Homo sapiens), P12931 [T341M]; test: Inhibition of recombinant full-length human Src T341M mutant at 1 uM using GGEEEEYFELVKKKK as substrate after 40 mins in presence of [gamma-33P]ATP by scintillation counting method
# Proto-oncogene tyrosine-protein kinase Src (Homo sapiens), P12931 [T341M], sequence (P12931 whole entry T341M, looked up): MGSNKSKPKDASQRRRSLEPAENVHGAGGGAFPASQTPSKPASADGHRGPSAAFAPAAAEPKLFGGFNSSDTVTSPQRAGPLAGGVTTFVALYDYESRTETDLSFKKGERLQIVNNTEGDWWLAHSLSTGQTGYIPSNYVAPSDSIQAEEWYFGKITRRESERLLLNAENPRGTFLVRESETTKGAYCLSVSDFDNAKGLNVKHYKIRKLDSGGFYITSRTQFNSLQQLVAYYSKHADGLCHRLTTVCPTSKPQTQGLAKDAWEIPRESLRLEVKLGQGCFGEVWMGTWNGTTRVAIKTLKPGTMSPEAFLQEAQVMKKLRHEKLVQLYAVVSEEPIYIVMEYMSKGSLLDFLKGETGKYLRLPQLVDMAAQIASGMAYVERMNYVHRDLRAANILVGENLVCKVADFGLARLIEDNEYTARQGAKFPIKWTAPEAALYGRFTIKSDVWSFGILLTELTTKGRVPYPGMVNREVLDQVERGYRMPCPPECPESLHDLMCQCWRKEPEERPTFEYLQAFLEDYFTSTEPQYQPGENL
# [18] = target: Serine/threonine-protein kinase haspin (Homo sapiens) (UniProt Q8TF76); test: Inhibition of recombinant human Haspin (471 to end residues) at 1 uM using RARTLSFAEPG as substrate after 40 mins in presence of [gamma-33P]ATP by scintillation counting method
# [19] = target: Serine/threonine-protein kinase TAO3 (Homo sapiens) (UniProt Q9H2K8); test: Inhibition of recombinant human TAO3 (1 to 411 residues) at 1 uM using myelin basic protein as substrate after 40 mins in presence of [gamma-33P]ATP by scintillation counting method
# [20] = target: Tyrosine-protein kinase Fgr (Homo sapiens) (UniProt P09769); test: Inhibition of recombinant human FGR (2 to end residues) at 1 uM using poly(Glu,Tyr) 4:1 as substrate after 40 mins in presence of [gamma-33P]ATP by scintillation counting method
# Tyrosine-protein kinase Fgr (Homo sapiens), sequence (P09769 2-529 limits assumed): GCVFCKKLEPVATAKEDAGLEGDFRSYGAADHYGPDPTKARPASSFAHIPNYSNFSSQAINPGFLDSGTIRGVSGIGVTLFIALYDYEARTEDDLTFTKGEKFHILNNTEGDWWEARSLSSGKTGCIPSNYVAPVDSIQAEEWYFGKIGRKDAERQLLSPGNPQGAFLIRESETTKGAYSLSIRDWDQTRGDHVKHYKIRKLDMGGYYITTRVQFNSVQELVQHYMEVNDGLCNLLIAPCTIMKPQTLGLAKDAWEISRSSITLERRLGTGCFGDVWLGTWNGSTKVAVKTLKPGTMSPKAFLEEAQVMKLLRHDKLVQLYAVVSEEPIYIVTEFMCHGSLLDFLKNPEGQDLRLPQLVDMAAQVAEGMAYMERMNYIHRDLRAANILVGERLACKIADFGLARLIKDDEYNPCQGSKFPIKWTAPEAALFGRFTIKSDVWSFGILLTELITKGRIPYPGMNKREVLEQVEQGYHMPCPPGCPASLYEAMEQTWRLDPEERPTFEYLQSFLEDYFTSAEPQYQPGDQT
# [21] = target: Activin receptor type-1 (Homo sapiens) (UniProt Q04771); test: Inhibition of recombinant human ALK2 (147 to end residues) at 1 uM using casein as substrate after 40 mins in presence of [gamma-33P]ATP by scintillation counting method
# [22] = target: PAS domain-containing serine/threonine-protein kinase (Homo sapiens) (UniProt Q96RG2); test: Inhibition of recombinant human PASK (995 to end residues) at 1 uM using KKLNRTLSFAEPG as substrate after 40 mins in presence of [gamma-33P]ATP by scintillation counting method
# [23] = system: Fibroblast growth factor receptor 2 (Homo sapiens), P21802 [N549H]; test: Inhibition of recombinant human FGFR2 N549H mutant (456 to 770 residues) at 1 uM using GGEEEEYFELVKKKK as substrate after 40 mins in presence of [gamma-33P]ATP by scintillation counting method
smiles,measurement,setting,value
CS(=O)(=O)c1ccc(-n2nc(-c3cnc4[nH]ccc4c3)c3c(N)ncnc32)cc1,inhibition,[1],-3%
same,inhibition,[2],27%
same,inhibition,[3],-8%
same,inhibition,[4],4%
same,inhibition,[5],-5%
same,inhibition,[6],20%
same,inhibition,[7],0%
same,inhibition,[8],15%
same,inhibition,[9],6%
same,inhibition,[10],8%
same,inhibition,[11],78%
same,inhibition,[12],93%
same,inhibition,[13],-6%
same,inhibition,[14],76%
same,inhibition,[15],18%
same,inhibition,[16],64%
same,inhibition,[17],7%
same,inhibition,[18],-9%
same,inhibition,[19],5%
same,inhibition,[20],69%
same,inhibition,[21],0%
same,inhibition,[22],-6%
same,inhibition,[23],70%
